Values of other authors in patent US20230357798A1, “GENE CORRECTION FOR X-CGD IN HEMATOPOIETIC STEM AND PROGENITOR CELLS” (THE BOARD OF TRUSTEES OF THE LELAND STANFORD JUNIOR …, priority 2020, published 2023).
Like-named read-outs stand apart in the source and are kept apart here.

Experiments:
CD34^+ HSPCs [1] = system: CD34^+ HSPCs
CD34^+ HSPCs [2] = settings: for cell viability relative to edited controls: single agent, CD34+ HSPCs

Row | Compound | enhancement of HDR (CD34^+ HSPCs [1]; single agent, CD34+ HSPCs) | cell viability relative to edited controls (CD34^+ HSPCs [2]) | enhancement of HDR (CD34^+ HSPCs [1]; combined with Trichostatin A and NSC 15520, CRISPR/Cpf1, ssODN donor) | HSPC viability (CD34^+ HSPCs [2]; combined with Trichostatin A and NSC 15520)
1 | O=c1cc(N2CCOCC2)oc2c(-c3cccc4c3sc3ccccc34)cccc12 [NU7441] | 2 fold | ~65% |  | 
2 | O=c1cc(N2CCOCC2)oc2c1ccc1ccccc12 [NU7026] | 1.7 fold | ~80% | 2.6 fold | 65%
